Laboratory results taken from ChEMBL document CHEMBL2321831, “Design, synthesis, and biological evaluations of novel 7-[7-amino-7-methyl-5-azaspiro[2.4]heptan-5-yl]-8-methoxyquinolines with potent antibacterial activity against respiratory pathogens” (J Med Chem, 2013).

Tests used:
[1] = Drug recovery in cynomolgus monkey urine at 10 mg/kg, iv after 24 hrs; format: ADME, organism-based, Macaca fascicularis; set-up: dose 10 mg/kg, route intravenous; conditions: read-out: Drug recovery
[2] = Primary phase half life in cynomolgus monkey serum at 10 mg/kg, iv; format: ADME, organism-based, Macaca fascicularis; set-up: dose 10 mg/kg, route intravenous; conditions: read-out: alphat1/2 (converted)
[3] = AUC (0 to 8 hrs) in cynomolgus monkey serum at 10 mg/kg, iv; format: ADME, organism-based, Macaca fascicularis, Plasma; set-up: time < 8 hr, dose 10 mg/kg, route intravenous
[4] = Drug uptake in cynomolgus monkey serum at 10 mg/kg, iv after 5 mins; format: ADME, organism-based, Macaca fascicularis; set-up: dose 10 mg/kg, route intravenous; conditions: read-out: Drug uptake
[5] = Drug recovery in cynomolgus monkey urine at 5 mg/kg, po after 24 hrs; format: ADME, organism-based, Macaca fascicularis; set-up: dose 5 mg/kg, route oral; conditions: read-out: Drug recovery
[6] = Half life in cynomolgus monkey serum at 5 mg/kg, po; format: ADME, organism-based, Macaca fascicularis; set-up: dose 5 mg/kg, route oral
[7] = Cmax in cynomolgus monkey serum at 5 mg/kg, po; format: ADME, organism-based, Macaca fascicularis; set-up: dose 5 mg/kg, route oral
[8] = AUC (0 to 24 hrs) in cynomolgus monkey serum at 5 mg/kg, po; format: ADME, organism-based, Macaca fascicularis, Plasma; set-up: time < 24 hr, dose 5 mg/kg, route oral
[9] = Drug recovery in Crj:CD rat urine at 5 mg/kg, po after 24 hrs; format: ADME, organism-based; set-up: dose 5 mg/kg, route oral; conditions: read-out: Drug recovery
[10] = AUC (0 to 8 hrs) in Crj:CD rat kidney at 5 mg/kg, po; format: ADME, organism-based; set-up: time < 8 hr, dose 5 mg/kg, route oral
[11] = AUC (0 to 8 hrs) in Crj:CD rat liver at 5 mg/kg, po; format: ADME, organism-based; set-up: time < 8 hr, dose 5 mg/kg, route oral
[12] = AUC (0 to 8 hrs) in Crj:CD rat lung at 5 mg/kg, po; format: ADME, organism-based; set-up: time < 8 hr, dose 5 mg/kg, route oral
[13] = Cmax in Crj:CD rat serum at 5 mg/kg, po; format: ADME, organism-based; set-up: dose 5 mg/kg, route oral
[14] = AUC (0 to 8 hrs) in Crj:CD rat serum at 5 mg/kg, po; format: ADME, organism-based; set-up: time < 8 hr, dose 5 mg/kg, route oral
[15] = Plasma protein binding in human at 10 ug/mL by ultrafiltration method; format: ADME, cell-free; conditions: read-out: PPB (converted)
hERG (KCNH2) [16] = molecular target: T1, hERG (KCNH2) (Homo sapiens, UniProt Q12809); assay: Inhibition of human ERG expressed in CHOK1 cells at 100 uM; format: cell-based; conditions: CHO-K1 cells expressing hERG
hERG (KCNH2) [17] = molecular target: T1, hERG (KCNH2); assay: Inhibition of human ERG expressed in CHOK1 cells at 30 uM; format: cell-based; conditions: CHO-K1 cells expressing hERG
Streptococcus pneumoniae [18] = assay: Antibacterial activity against levofloxacin-intermediate and levofloxacin-resistant Streptococcus pneumoniae after 18 hrs by microbroth dilution method; format: functional
Chlamydia pneumoniae [19] = assay: Antibacterial activity against Chlamydophila pneumoniae CM-1 after 18 hrs by microbroth dilution method; format: functional; conditions: CM-1, 18 h
Chlamydia pneumoniae [20] = assay: Antibacterial activity against Chlamydophila pneumoniae AR39 after 18 hrs by microbroth dilution method; format: functional; conditions: AR39, 18 h
[21] = tested on: Mycoplasmoides pneumoniae; assay: Antibacterial activity against Mycoplasma pneumoniae ATCC 29085 after 18 hrs by microbroth dilution method; format: functional; conditions: ATCC 29085, 18 h
[22] = tested on: Mycoplasmoides pneumoniae; assay: Antibacterial activity against Mycoplasma pneumoniae 18-1 after 18 hrs by microbroth dilution method; format: functional; conditions: 18-1, 18 h
Pseudomonas aeruginosa = assay: Antibacterial activity against Pseudomonas aeruginosa PAO1 after 18 hrs by microbroth dilution method; format: functional; conditions: PAO1, 18 h
Moraxella catarrhalis = assay: Antibacterial activity against Moraxella catarrhalis ATCC 25238 after 18 hrs by microbroth dilution method; format: functional; conditions: ATCC 25238, 18 h
Haemophilus influenzae = assay: Antibacterial activity against Haemophilus influenzae ATCC 49247 after 18 hrs by microbroth dilution method; format: functional; conditions: ATCC 49247, 18 h
Klebsiella pneumoniae = assay: Antibacterial activity against Klebsiella pneumoniae TYPE1 after 18 hrs by microbroth dilution method; format: functional; conditions: TYPE1, 18 h
Bacillus subtilis = assay: Antibacterial activity against Bacillus subtilis IID 685 after 18 hrs by microbroth dilution method; format: functional; conditions: IID 685, 18 h
Streptococcus pyogenes = assay: Antibacterial activity against Streptococcus pyogenes G-36 after 18 hrs by microbroth dilution method; format: functional; conditions: G-36, 18 h
Enterococcus faecalis = assay: Antibacterial activity against Enterococcus faecalis ATCC 19433 after 18 hrs by microbroth dilution method; format: functional; conditions: ATCC 19433, 18 h
Streptococcus pneumoniae [23] = assay: Antibacterial activity against quinolone, penicillin-resistant Streptococcus pneumoniae 104835 after 18 hrs by microbroth dilution method; format: functional; conditions: Streptococcus pneumoniae, 104835, 18 h
Streptococcus pneumoniae [24] = assay: Antibacterial activity against penicillin-susceptible Streptococcus pneumoniae J24 after 18 hrs by microbroth dilution method; format: functional; conditions: J24, 18 h
[25] = tested on: Staphylococcus epidermidis; assay: Antibacterial activity against Staphylococcus epidermidis 56500 after 18 hrs by microbroth dilution method; format: functional; conditions: Staphylococcus epidermidis, 56500, 18 h
Staphylococcus aureus [26] = assay: Antibacterial activity against levofloxacin-resistant and methicillin-resistant Staphylococcus aureus 870307 after 18 hrs by microbroth dilution method; format: functional; conditions: Staphylococcus aureus, 870307, 18 h
Staphylococcus aureus [27] = assay: Antibacterial activity against Staphylococcus aureus FDA 209-P after 18 hrs by microbroth dilution method; format: functional

T1 sequence (Q12809 whole entry): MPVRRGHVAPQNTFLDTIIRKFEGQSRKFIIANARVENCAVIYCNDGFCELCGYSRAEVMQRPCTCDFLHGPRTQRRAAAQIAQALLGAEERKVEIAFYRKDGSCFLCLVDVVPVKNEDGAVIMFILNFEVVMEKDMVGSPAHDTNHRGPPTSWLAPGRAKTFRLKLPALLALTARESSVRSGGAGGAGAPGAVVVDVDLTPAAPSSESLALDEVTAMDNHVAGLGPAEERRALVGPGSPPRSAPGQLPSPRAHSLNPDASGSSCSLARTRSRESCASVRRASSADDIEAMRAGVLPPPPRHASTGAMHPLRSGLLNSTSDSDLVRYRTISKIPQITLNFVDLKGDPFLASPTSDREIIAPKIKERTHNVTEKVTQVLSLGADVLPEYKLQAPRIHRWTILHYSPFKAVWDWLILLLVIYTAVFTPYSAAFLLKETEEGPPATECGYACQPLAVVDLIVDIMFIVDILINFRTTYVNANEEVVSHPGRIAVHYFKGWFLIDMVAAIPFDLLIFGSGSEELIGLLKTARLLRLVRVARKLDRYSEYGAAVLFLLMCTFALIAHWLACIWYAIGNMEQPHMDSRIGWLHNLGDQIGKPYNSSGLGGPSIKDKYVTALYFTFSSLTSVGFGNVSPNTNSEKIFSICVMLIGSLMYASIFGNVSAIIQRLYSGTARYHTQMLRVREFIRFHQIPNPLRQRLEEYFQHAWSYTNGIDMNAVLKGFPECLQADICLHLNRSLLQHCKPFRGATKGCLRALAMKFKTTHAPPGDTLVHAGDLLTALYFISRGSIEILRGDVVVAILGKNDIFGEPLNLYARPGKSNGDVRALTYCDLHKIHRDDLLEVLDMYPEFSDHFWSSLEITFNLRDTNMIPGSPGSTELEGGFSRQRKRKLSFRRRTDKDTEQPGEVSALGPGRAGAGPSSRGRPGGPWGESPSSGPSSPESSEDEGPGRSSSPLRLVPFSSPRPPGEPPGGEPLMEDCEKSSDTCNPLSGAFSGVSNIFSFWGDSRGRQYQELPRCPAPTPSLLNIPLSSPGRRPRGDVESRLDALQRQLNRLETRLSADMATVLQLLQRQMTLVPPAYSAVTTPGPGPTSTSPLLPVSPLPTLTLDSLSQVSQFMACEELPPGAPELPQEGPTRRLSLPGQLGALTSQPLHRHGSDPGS

## C[C@H]1COc2c(N3CCN(C)CC3)c(F)cc3c(=O)c(C(=O)O)cn1c23.C[C@H]1COc2c(N3CCN(C)CC3)c(F)cc3c(=O)c(C(=O)O)cn1c23.O [LEVOFLOXACIN]
[1]
  dose excreted at 24 h: 80.7%
[2]
  half-life: 3.2 h
[3]
  AUC(0-t) at 8 h: 15500 ng·h/mL
[4]
  concentration at 5 min: 4170 ng/mL
[5]
  dose excreted at 24 h: 73.9%
[6]
  half-life: 3.5 h
[7]
  Cmax: 1920 ng/mL
[8]
  AUC(0-t) at 24 h: 15200 ng·h/mL
[9]
  dose excreted at 24 h: 80%
[10]
  AUC(0-t) at 8 h: 19300 ng·h/mL
[11]
  AUC(0-t) at 8 h: 16400 ng·h/mL
[12]
  AUC(0-t) at 8 h: 5570 ng·h/mL
[13]
  Cmax: 1470 ng/mL
[14]
  AUC(0-t) at 8 h: 3410 ng·h/mL
[15]
  fraction unbound at 10 ug/mL: 0.678
hERG (KCNH2) [16]
  inhibition at 100 µM: 4.2%
hERG (KCNH2) [17]
  inhibition at 30 µM: -0.9%
Streptococcus pneumoniae [18]
  MIC50: 8 µg/mL
  MIC80: 16 µg/mL
  MIC90: 16 µg/mL
Chlamydia pneumoniae [19]
  MIC: 0.5 µg/mL
Chlamydia pneumoniae [20]
  MIC: 0.5 µg/mL
[21]
  MIC: 1 µg/mL
[22]
  MIC: 2 µg/mL
Pseudomonas aeruginosa
  MIC: 0.39 µg/mL
Moraxella catarrhalis
  MIC: 0.025 µg/mL
Haemophilus influenzae
  MIC: 0.012 µg/mL
Klebsiella pneumoniae
  MIC: 0.05 µg/mL
Bacillus subtilis
  MIC: 1.56 µg/mL
Streptococcus pyogenes
  MIC: 0.78 µg/mL
Enterococcus faecalis
  MIC: 0.78 µg/mL
Streptococcus pneumoniae [23]
  MIC: > 6.25 µg/mL
Streptococcus pneumoniae [24]
  MIC: 0.78 µg/mL
[25]
  MIC: 0.39 µg/mL
Staphylococcus aureus [26]
  MIC: > 6.25 µg/mL
Staphylococcus aureus [27]
  MIC: 0.1 µg/mL
